In a melting point compilation (Tetko et al.; mined from patent text by program, amines drawn as free bases though some values may be those of a salt):

Row | SMILES | melting point [°C]
1 | FC(F)(F)c1ccc2nc(N3CCN(c4ccncc4C(F)(F)F)CC3)[nH]c2c1 | 220 to 224
2 | COC(=O)Cn1c(C)ccc1C | 44 to 46
3 | Cc1ccc(C)c(SCCCCCC(=O)O)c1 | 61 to 62
4 | CC1Cc2ccccc2N1N (stereo not given) | 37 to 38
5 | CC(=O)N1C(C)(C)CN(CCN2CC(C)(C)N(C(C)=O)C(C)(C)C2=O)C(=O)C1(C)C | 180 to 183
6 | CCCCCCCC(=O)Nc1ccc([N+](=O)[O-])cc1 | 80.9 to 81.6
7 | OCc1c(CO)c(-c2ccncc2)n2c1CCC2 | 173 to 175
8 | CC(C)(C)c1cc(C(c2ccccc2)N(O)C(N)=O)cc(C(C)(C)C)c1O (stereo not given) | 188 to 189
9 | Cc1cc(=O)n(-c2cccc(Cl)c2)c2[nH]n(-c3ccccc3)c(=O)c12 | 278 to 282
10 | CC(=O)Nc1ccc2c(c1)NC(=O)C2CC(C)C (stereo not given) | 214 to 216
11 | CN(C(=O)Cc1cccc2ccccc12)C1c2ccccc2CCC1N1CCCC1 (stereo not given) | 125
12 | O=C1C(Cl)=C(c2ccccc2)C(=O)N1c1ccccc1Cl | 132 to 133
13 | CC1(c2ccccc2)Cc2cc(OCC(=O)O)c(Cl)c(Cl)c2C1=O (stereo not given) | 168 to 169
14 | N#CC(O)C(=O)c1ccccc1 (stereo not given) | 100 to 105
15 | COC(=O)Nc1nc(C)c(-c2nc3ccccc3c(=O)n2-c2cccc(C)c2)s1 | 232 to 233
16 | COc1cc(OC)nc(-n2c(C(F)(F)F)nc3cc(C)ccc32)n1 | 93 to 96
17 | COC(=O)CCC(=O)c1ccc(-c2ccc(Br)cc2)cc1 | 115 to 116
18 | Cc1ccc2[nH]c(=S)c(C(=O)c3ccc([N+](=O)[O-])cc3)c(O)c2c1 | 247
19 | O=C(Nc1cc(Br)cc(C(F)(F)F)c1)Oc1ccc([N+](=O)[O-])cc1 | 140 to 142
20 | Cc1cc(NC(=O)C(CSC(=O)CC(C)C)Cc2ccccc2)cc(C(=O)O)c1 (stereo not given) | 153 to 157
21 | CC(C)c1cc2cc(O)ccc2c(Oc2ccc(/C=C/C(=O)O)cc2)c1-c1ccccc1 | 198 to 199
22 | Cc1oc(-c2ccccc2)nc1CCOc1ccc(CCCC=C2OC(=O)NC2=O)cc1 | 152 to 153
23 | CCOC(=O)CN(C)c1ccc(N=O)cc1 | 55 to 56
24 | O=C1N(CO)CCN1CCN1CCC(c2cn(-c3ccc(F)cc3)c3ccc(Cl)cc23)CC1 | 118 to 119
25 | CCNC(=O)c1ccncc1 | 93 to 95

Row | SMILES | melting point [°C]
26 | CCCCOc1ccc(-c2ccc3c(c2)C=C(C(=O)Nc2ccc(CN(C)C4CCOCC4)cc2)CCS3(=O)=O)cc1 | 233 to 236
27 | CCOC(=O)c1nc2sc(C(C)C)cc2c(=O)[nH]1 | 182 to 183
28 | O=C(NC1CCN(Cc2ccccc2)C1)C12CC3CC(CC(C3)C1)C2 (stereo not given) | 130 to 132
29 | COc1cc2ccccc2cc1C(=O)NNC(=O)c1ccc2ccccc2c1 | 194 to 196
30 | COc1ccc(S(=O)(=O)N2CCCC2)cc1 | 88 to 89
31 | N#Cc1ccc2cc(Cc3cc4ccc(C#N)cc4o3)oc2c1 | 207 to 209
32 | O=C1NC(=O)C(c2cc(F)cc(F)c2)(c2cc(F)cc(F)c2)N1 | 271 to 274
33 | CCS(=O)(=O)Nc1cc(C)cc(Cc2c[nH]cn2)c1C | 167 to 169
34 | CNC(=O)c1ccccc1Nc1nc(Nc2ccc3c(c2)N(C)CCN(CCOC)C3)ncc1Cl | 172 to 174
35 | CCCNc1cn(-c2cccnc2)nc1C | 65 to 67
36 | CC(=O)C1CCC2C3CCC4=CC(=O)C=CC4(C)C3=CCC12C (stereo not given) | 161 to 163
37 | COc1cc2c(cc1O)OCC(c1ccc(O)cc1)C2 (stereo not given) | 159
38 | COCc1cccc(C=O)c1NC(=O)CC1c2ccccc2Oc2ccccc21 | 202 to 203
39 | COc1ccc2c(c1)c1c3c(c(-c4ccccc4)cc1n2CCO)C(=O)NC3=O | 262 to 264
40 | COc1cc(NC(=O)Oc2ccccc2)ccc1S(=O)(=O)n1c(=O)n(C2CCCCCC2)c2cc(Cl)ccc21 | 234
41 | O=C(c1ccc(O)cc1)c1sc2ccccc2c1-c1ccccc1 | 204 to 205
42 | O=C1CCc2ncc3c(c21)CCO3 | 148 to 149
43 | CCCCNC(=O)c1ccco1 | 43.8
44 | CCCCNC(=O)c1ccc(F)c2c1CC(N(CCCc1c[nH]c3ccc(F)cc13)C1CCC1)CO2 (stereo not given) | 106
45 | Cn1c(=O)c(-c2ccccc2Cl)cc2cnc(N[C@H]3CC[C@H](NS(C)(=O)=O)CC3)nc21 | 261
46 | CCOc1ccc2c(c1)n(C1CCCCC1)c(=O)n2S(=O)(=O)c1ccc(C(=O)NC(C)(C)CC)cc1OC | 219
47 | COc1ccc(-c2nn(C(C)c3oc4ccccc4c(=O)c3-c3cccc(F)c3)c3ncnc(N)c23)cc1F (stereo not given) | 222 to 224
48 | C=CCN(CC=C)C(=O)n1cnc(S(=O)(=O)CCC)n1 | 41 to 42
49 | Cc1nn(C)c2c1Nc1ncccc1N(C)C2=O | 141 to 142
50 | NC(=O)N(O)Cc1ccc2c(c1)CCN2Cc1ccccc1 | 107

Row | SMILES | melting point [°C]
51 | Cc1nc(N2CCc3ccccc3CC2)c(C#N)c(=O)n1OCC(F)(F)F | > 200
52 | Cc1ccn(-c2ccc(C(=O)c3cccc4c3Nc3ncccc3C(C)N4)c(C(F)(F)F)c2)n1 (stereo not given) | 188 to 190
53 | Cn1cc(-c2ncc(-c3ccc4cc(O)ccc4c3)o2)c2ccccc21 | 188 to 190
54 | COc1cc2c(c(-c3cccc(C)c3C)c1)OC(CN)C2 (stereo not given) | 129 to 130
55 | COC(=O)c1cc(=O)c2ccc(S)cc2o1 | 147 to 150
56 | CS(=O)(=O)Nc1cccc(C=C2SC(=S)NC2=O)c1 | 260 to 265
57 | CN(C)S(=O)(=O)C(Br)(Br)S(=O)(=O)c1ccccc1 | 144 to 145
58 | COCOCc1cccc2c(=O)c(C(=O)O)c(-c3ccccc3)oc12 | 142 to 143
59 | O=C(O)CCCCNC(=O)NCCCCC1CCSS1 (stereo not given) | 125 to 132
60 | CC(=O)Oc1coc(-c2cccc([N+](=O)[O-])c2)cc1=O | 170 to 171
61 | Cc1ccc(S(=O)(=O)OC[C@H]2CC[C@H](c3ccccc3)CC2)cc1 | 108 to 109
62 | CCCc1cc(I)ccc1O | 54 to 56
63 | O=S(=O)(OCC(F)(F)F)c1ccc2ccccc2c1 | 72.7
64 | C=CCNc1nc(NC/C=C/c2ccccc2)c2scc(C)c2n1 | 82 to 84
65 | Nc1nc(COCCO)nc2nccnc12 | 149 to 151
66 | CC(=O)c1nc2cccc(Oc3ccccc3)c2cc1OCc1ccccc1 | 116 to 118
67 | CCn1c(C)nc2cc(C#N)ccc21 | 162
68 | Cc1c[nH]n(Cc2ccc(Cl)c(Cl)c2)c1=O | 156
69 | CC(C)n1cc(C(=O)NCc2ccc(Cl)cc2)c(=O)c2cc(I)sc21 | 173 to 180
70 | CC(=O)N(CC(=O)N1CC1C#N)c1ccccc1 (stereo not given) | 69 to 75
71 | N#CCc1cc(Br)c(C(=O)c2ccc(Cl)cc2)[nH]1 | 185 to 186
72 | CC(=O)Nc1cccc2c1CN(c1ccc3c(ccn3C)c1)C2=O | 239 to 243
73 | O=C(Nc1ccc(Oc2ccnc(N3CCCC3)n2)c2ccccc12)c1cc(F)cc(N2CCOCC2)c1 | 205 to 207
74 | COc1ccc(NC(=O)Nc2c(Cl)cccc2Cl)cc1OC1CCCC1 | 203 to 204
75 | CCOC(=O)c1cn(Cc2cnsn2)c2nc(Cl)c(F)cc2c1=O | 175 to 177
